Drawing on patent US7868031B2, “Propionamide compounds as antiinflammatory agents” (Roche Palo Alto LLC, priority 2005, dated 2011), this text covers Ki for four compounds.

SMILES strings stand for the structures.

The target in this test is T1, Human recombinant purified glucocorticoid receptor (Homo sapiens, UniProt P04150).
T1 sequence (P04150 1-777): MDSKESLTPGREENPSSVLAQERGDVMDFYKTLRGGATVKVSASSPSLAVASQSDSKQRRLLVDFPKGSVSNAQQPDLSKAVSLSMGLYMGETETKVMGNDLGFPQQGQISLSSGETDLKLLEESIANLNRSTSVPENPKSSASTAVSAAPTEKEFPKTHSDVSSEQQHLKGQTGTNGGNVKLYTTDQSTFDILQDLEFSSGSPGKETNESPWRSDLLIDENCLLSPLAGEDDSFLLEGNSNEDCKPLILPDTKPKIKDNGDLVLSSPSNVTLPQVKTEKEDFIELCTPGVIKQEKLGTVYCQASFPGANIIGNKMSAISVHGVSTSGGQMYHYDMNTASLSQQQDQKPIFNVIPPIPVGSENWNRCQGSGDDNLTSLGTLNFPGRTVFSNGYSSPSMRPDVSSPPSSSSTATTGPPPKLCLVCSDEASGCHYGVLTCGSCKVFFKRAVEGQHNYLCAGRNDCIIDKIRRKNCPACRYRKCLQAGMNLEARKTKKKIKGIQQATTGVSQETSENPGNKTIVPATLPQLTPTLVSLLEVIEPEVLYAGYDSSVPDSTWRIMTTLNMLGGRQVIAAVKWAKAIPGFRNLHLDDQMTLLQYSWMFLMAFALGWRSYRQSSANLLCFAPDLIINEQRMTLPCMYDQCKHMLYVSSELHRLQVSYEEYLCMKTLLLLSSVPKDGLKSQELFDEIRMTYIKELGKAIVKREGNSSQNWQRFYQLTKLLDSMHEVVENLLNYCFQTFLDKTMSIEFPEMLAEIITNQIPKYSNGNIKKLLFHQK
As to the kind of experiment: Glucocorticoid receptor competitive binding assay (3H-dexamethasone). To be noted: competition with 2 nM 3H-dexamethasone; GR at 1 nM; 4° C. overnight; read-out: Binding Affinity Ki. As to the method:
The affinity of glucocorticoid receptor antagonists for the glucocorticoid receptor was determined in competitive binding assays by the ability of the antagonist to compete with tritiated dexamethasone. All assay steps were performed on ice in 96-well plates. Binding buffer contained 10 mM potassium phosphate pH 7.4, 20 mM Na2Mo4, 100 μM EDTA, 2% DMSO, and 5 mM DTT. Human recombinant purified glucocorticoid receptor was used at 1 nM. Compounds tested had up to 2% DMSO final concentration. Non-specific binding condition was 1 μM dexamethasone. The radioligand used for the competition assay was 2 nM ^3H-dexamethasone (83 Ci/mmol stock solution). Buffer, compounds or vehicles, GR, and radioligand were incubated at 4° C. overnight. Unifilter GF/B 96-well filter plates were treated with 0.5% PEI after incubation. Samples were transferred to filter plates by a cell harvester.
Filter plates were washed five times with 50 mM Tris pH 7.5 and 5 mM EDTA wash buffer. Samples were dried at 65° C. for about 1 hr. Scintillation fluid was added to filter plates at 50 μL/well and ^3H cpm were measured on a TopCount scintillation counter.
In the case of `CCOC(=O)C(O)c1ccc(NC(=O)C(O)(CC2(c3ccccc3C(F)(F)F)CCC2)C(F)(F)F)cc1` (stereo not shown) [Example 4, Hydroxy-(4-{3,3,3-trifluoro-2-hydroxy-2-[1-(2-trifluoromethyl-phenyl)-cyclobutylmethyl]-propionylamino}-phenyl)-acetic acid ethyl ester], the Ki – broadly, a measure of affinity in units of concentration, obtained from inhibition or displacement – was determined as 555 nM.

With `O=C(Nc1ccc(-c2ncco2)cc1)C(O)(CC1(c2ccccc2C(F)(F)F)CCC1)C(F)(F)F` (stereo not shown) [Example 1, 3,3,3-Trifluoro-2-hydroxy-N-(4-oxazol-2-yl-phenyl)-2-[1-(2-trifluoromethyl-phenyl)-cyclobutylmethyl]-propionamide], the Ki is 161 nM.

On to `Cc1noc(-c2ccc(NC(=O)C(O)(CC3(c4ccccc4C(F)(F)F)CCC3)C(F)(F)F)cc2)n1` (stereo not shown) [Example 3, 3,3,3-Trifluoro-2-hydroxy-N-[4-(3-methyl-[1,2,4]oxadiazol-5-yl-)-phenyl]-2-[1-(2-trifluoromethyl-phenyl)-cyclobutylmethyl]-propionamide], for which the Ki came out at 25.2 nM. Then `O=C(Nc1cccc(-c2cnco2)c1)C(O)(CC1(c2ccccc2C(F)(F)F)CCC1)C(F)(F)F` (stereo not shown) [Example 2, 3,3,3-Trifluoro-2-hydroxy-N-(3-oxazol-5-yl-phenyl)-2-[1-(2-trifluoromethyl-phenyl)-cyclobutylmethyl]-propionamide], with 13.5 nM.
